This note sets out measurements from patent publication US7553969B1, “Substituted phenethylamine derivatives” (Chugai Seiyaku Kabushiki Kaisha, priority 1999, dated 2009).

For one test, the target named is T1, motilin receptor (Oryctolagus cuniculus, UniProt G1T803).
T1 construct: homogenized in 50 mM Tris buffer to prepare a protein sample; from tissue; host or cells: rabbit duodenum homogenate (mucous membrane separated)
Description: Motilin receptor binding test (125I motilin, rabbit duodenum protein sample). Particulars: 125I motilin 25 pM, concentration reducing specific binding by 50%. As for the experimental part:
Motilin receptor binding test
A motilin receptor binding test was conducted in the following manner [Vantrappen et al., Regul. Peptides, 15, 143 (1986)]. The duodenum was extracted from a slaughtered rabbit, had the mucous membrane separated and homogenized in 50 mM Tris buffer to prepare a protein sample. The protein sample was incubated together with ^125I motilin 25 pM and thereafter the radioactivity bound to the protein was measured. Specific binding was defined as the difference between the radioactivity in the case of adding a great excess amount of motilin (10^−7 M) and that in the case of no adding. The activity of the compound was expressed by IC50 (in nM), as the concentration sufficient to reduce the specific binding by 50%.

In test [1] the test system is specimen of longitudinal muscle in the duodenum extracted from a rabbit (motilin-induced contraction). Nature of the test: Action on the motilin-induced contraction of a specimen of longitudinal muscle in the duodenum extracted from a rabbit. Particulars: Oryctolagus cuniculus, organ bath, Krebs solution 28° C., read-out: Contraction suppressing test, pA2 (converted). As for the experimental part: Action on the Contraction of a Specimen of Longitudinal Muscle in the Duodenum Extracted from a Rabbit
The action on the motilin-induced contraction of a specimen of longitudinal muscle in the duodenum extracted from a rabbit was investigated by the following method. A duodenum specimen (5×15 mm) extracted from a slaughtered rabbit was suspended in an organ bath (10 ml) such that the longitudinal muscle would run vertically; the bath was filled with a Krebs solution kept at 28° C. A mixed gas (95% O2 and 5% CO2) was continuously bubbled into the Krebs solution and the contraction of the duodenum specimen was recorded isotonically (with a 1-g load) via an isotonic transducer (ME-3407, ME Commercial, Tokyo, Japan). The degree of contraction was expressed in relative values, with the contraction by acetylcholine at a dose of 10^−4 M being taken as 100%. The activity of the compound was calculated as pA2 value indicating its effect on the dose-dependent muscle contraction by the motilin put into the organ bath.

Where a SMILES comes first, the peptide text is derived from it. [ ]: non-standard residue; d: D form. The star is where a group is joined. ξ: configuration not given here. NMeTyr(3-tBu) = CN[C@@H](Cc1ccc(O)c(C(C)(C)C)c1)C(=O)O; ξNMeTyr(3-tBu) = CNC(Cc1ccc(O)c(C(C)(C)C)c1)C(=O)O; NMePhe(4-F) = CN[C@@H](Cc1ccc(F)cc1)C(=O)O; Phe(4-F) = N[C@@H](Cc1ccc(F)cc1)C(=O)O; NMetBuAla = CN[C@@H](CC(C)(C)C)C(=O)O; ξPhe(4-CN) = N#Cc1ccc(CC(N)C(=O)O)cc1; NMe2Thi = CN[C@@H](Cc1cccs1)C(=O)O; NMeGly(cPr) = CN[C@H](C(=O)O)C1CC1; NMeIle(3ξ) = CCC(C)[C@H](NC)C(=O)O; NMeChg = CN[C@H](C(=O)O)C1CCCCC1; NMeF = CN[C@@H](Cc1ccccc1)C(=O)O; NMePhg = CN[C@H](C(=O)O)c1ccccc1; ξW = NC(Cc1c[nH]c2ccccc12)C(=O)O; NMeL = CN[C@@H](CC(C)C)C(=O)O; NMeNva = CCC[C@H](NC)C(=O)O; NMeV = CN[C@H](C(=O)O)C(C)C; Morpholide = C1CN(*)CCO1

T1 sequence (G1T803 1-400): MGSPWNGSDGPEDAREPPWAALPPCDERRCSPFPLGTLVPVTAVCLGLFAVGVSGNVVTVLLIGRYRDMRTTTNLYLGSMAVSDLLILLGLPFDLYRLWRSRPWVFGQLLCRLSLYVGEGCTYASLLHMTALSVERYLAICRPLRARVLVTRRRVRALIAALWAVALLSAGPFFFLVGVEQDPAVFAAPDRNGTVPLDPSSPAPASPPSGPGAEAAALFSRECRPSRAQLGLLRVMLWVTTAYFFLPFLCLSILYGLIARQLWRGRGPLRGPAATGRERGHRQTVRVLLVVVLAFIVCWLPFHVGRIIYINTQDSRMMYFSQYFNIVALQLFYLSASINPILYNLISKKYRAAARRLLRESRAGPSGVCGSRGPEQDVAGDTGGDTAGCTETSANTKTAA

With `CCN[C@@H](Cc1ccc(F)cc1)C(=O)N(C)[C@H](C(=O)N[C@@H](Cc1ccc(O)c(C(C)(C)C)c1)C(=O)NCO)C(C)C` [Example 124, N-Et-Phe(4-F)-N-Me-Val-Tyr(3-tBu)-NHCH2OH], at motilin receptor, the IC50 came to 0.98 nM. Besides, the Kb in test [1] was 0.794 nM.

With `CN[C@@H](Cc1ccc(F)cc1)C(=O)N(C)[C@H](C(=O)N(C)[C@@H](Cc1ccc(O)c(C(C)(C)C)c1)C(=O)NCO)C(C)C` [Example 125, N-Me-Phe(4-F)-N-Me-Val-N-Me-Tyr(3-tBu)-NHCH2OH], the half-maximal inhibitory concentration (IC50) at motilin receptor is 1 nM. Further, the Kb in test [1] is 1 nM.

In turn, `CCN[C@@H](Cc1ccc(F)cc1)C(=O)N(C)[C@H](C(=O)N(C)[C@@H](Cc1ccc(O)c(C(C)(C)C)c1)C(=O)NCO)C(C)C` [Example 126, N-Et-Phe(4-F)-N-Me-Val-N-Me-Tyr(3-tBu)-NHCH2OH] came in with an IC50 at motilin receptor of 1.9 nM. In addition, in test [1], the Kb is 0.631 nM.

On motilin receptor, `CCN(C(=O)[C@H](C(C)C)N(C)C(=O)[C@@H](N)Cc1ccc(F)cc1)[C@@H](Cc1ccc(O)c(C(C)(C)C)c1)C(=O)NCO` [Example 127, Phe(4-F)-N-Me-Val-N-Et-Tyr(3-tBu)-NHCH2OH] displayed an IC50 of 1.7 nM. Also, the Kb in test [1] is 2 nM.

In the case of `CCN(C(=O)[C@H](C(C)C)N(C)C(=O)[C@H](Cc1ccc(F)cc1)NC)[C@@H](Cc1ccc(O)c(C(C)(C)C)c1)C(=O)NCO` [Example 128, N-Me-Phe(4-F)-N-Me-Val-N-Et-Tyr(3-tBu)-NHCH2OH], the concentration for half-maximal inhibition (IC50) on motilin receptor stood at 1.5 nM. Also, the Kb in test [1] is 2 nM.

As to `CCN[C@@H](Cc1ccc(F)cc1)C(=O)N(C)[C@H](C(=O)N(CC)[C@@H](Cc1ccc(O)c(C(C)(C)C)c1)C(=O)NCO)C(C)C` [Example 129, N-Et-Phe(4-F)-N-Me-Val-N-Et-Tyr(3-tBu)-NHCH2OH], the half-maximal inhibitory concentration (IC50) on motilin receptor was 4 nM. For the same molecule, in test [1], the Kb is 3.16 nM.

At motilin receptor, `CC(C)[C@@H](C(=O)N(C)[C@@H](Cc1ccc(O)c(C(C)(C)C)c1)C(=O)NCO)N(C)C(=O)[C@@H](N)Cc1ccc(F)cc1` [Example 132, Phe(4-F)-N-Me-Val-N-Me-Tyr(3-tBu)-NHCH2OH] yielded an IC50 of 0.86 nM. Further, the Kb in test [1] is 1.26 nM.

Consider `CC(C)[C@@H](C(=O)N(C)[C@@H](Cc1ccc(O)c(C(C)(C)C)c1)C(=O)N1CCOCC1)N(C)C(=O)[C@@H](N)Cc1ccc(F)cc1` [Example 133, (2S)-2-[(2S)-2-amino-3-(4-fluorophenyl)-N-methylpropanolyamino]-N-((1S)-1-{[3-(tert-butyl)-4-hydroxyphenyl]methyl}-2-morpholin-4-yl-2-oxoethyl)-3-methyl-N-methylbutanamide] (H-[Phe(4-F)]-[NMeV]-[NMeTyr(3-tBu)]-Morpholide), for which, on motilin receptor, the IC50 worked out at 1.1 nM. The Kb in test [1] was 6.31 nM.

As to `CC(C)[C@@H](C(=O)N(C)[C@@H](Cc1ccc(O)c(C(C)(C)C)c1)C(=O)N1CCN(S(C)(=O)=O)CC1)N(C)C(=O)[C@@H](N)Cc1ccc(F)cc1` [Example 134, (2S)-2-[(2S)-2-amino-3-(4-fluorophenyl)-N-methylpropanolyamino]-N-((1S)-1-{[3-(tert-butyl)-4-hydroxyphenyl]methyl}-2-[4-(methylsulfonyl)piperazinyl]-2-oxoethyl)-3-methyl-N-methylbutanamide], the 50% inhibitory concentration (IC50) on motilin receptor came out at 1.5 nM. In addition, the Kb in test [1] was 5.01 nM.

In turn, `CCOC(=O)CN1CCN(C(=O)[C@H](Cc2ccc(O)c(C(C)(C)C)c2)N(C)C(=O)[C@H](C(C)C)N(C)C(=O)[C@@H](N)Cc2ccc(F)cc2)CC1` [Example 135, ethyl 2-[4-((2S)-2-{(2S)-2-[(2S)-2-amino-3-(4-fluorophenyl)-N-methylpropanolyamino]-3,N-dimethylbutanoylamino}-3-[3-(tert-butyl)-4-hydroxyphenyl]propanoyl)piperazinyl]acetate] had an IC50 at motilin receptor of 0.7 nM. Further, the Kb in test [1] was 3.16 nM.

Consider `CC(C)[C@@H](C(=O)N(C)[C@@H](Cc1ccc(O)c(C(C)(C)C)c1)C(=O)N1CCN(CC(=O)O)CC1)N(C)C(=O)[C@@H](N)Cc1ccc(F)cc1` [Example 136, 2-[4-((2S)-2-{(2S)-2-[(2S)-2-amino-3-(4-fluorophenyl)-N-methylpropanolyamino)-3,N-dimethylbutanoylamino}-3-[3-(tert-butyl)-4-hydroxyphenyl]propanoyl)piperazinyl]acetic acid], for which the IC50 on motilin receptor came out at 6.8 nM. For the same molecule, the Kb in test [1] was 25.1 nM.

`CCC[C@@H](C(=O)N(C)[C@@H](Cc1ccc(O)c(C(C)(C)C)c1)C(N)=O)N(C)C(=O)[C@@H](N)Cc1ccc(F)cc1` [Example 140, Phe(4-F)-N-Me-Nva-N-Me-Tyr(3-tBu)-NH2] (H-[Phe(4-F)]-[NMeNva]-[NMeTyr(3-tBu)]-NH2) came in with an IC50 at motilin receptor of 4 nM. In addition, the Kb in test [1] is 6.31 nM.

As for `CCC(C)[C@@H](C(=O)N(C)[C@@H](Cc1ccc(O)c(C(C)(C)C)c1)C(N)=O)N(C)C(=O)[C@@H](N)Cc1ccc(F)cc1` (stereo partly shown) [Example 142, Phe(4-F)-N-Me-Ile-N-Me-Tyr(3-tBu)-NH2] (H-[Phe(4-F)]-[NMeIle(3ξ)]-[NMeTyr(3-tBu)]-NH2), the IC50 at motilin receptor is 0.62 nM. For the same molecule, the Kb in test [1] was 2.51 nM.

At motilin receptor, `CC(C)C[C@@H](C(=O)N(C)[C@@H](Cc1ccc(O)c(C(C)(C)C)c1)C(N)=O)N(C)C(=O)[C@@H](N)Cc1ccc(F)cc1` [Example 144, Phe(4-F)-N-Me-Leu-N-Me-Tyr(3-tBu)-NH2] (H-[Phe(4-F)]-[NMeL]-[NMeTyr(3-tBu)]-NH2) returned an IC50 of 2 nM. Also, the Kb in test [1] was 3.16 nM.

On motilin receptor, `CN(C(=O)[C@@H](N)Cc1ccc(F)cc1)[C@@H](CC(C)(C)C)C(=O)N(C)[C@@H](Cc1ccc(O)c(C(C)(C)C)c1)C(N)=O` [Example 148, Phe(4-F)-N-Me-Leu(γ-Me)-N-Me-Tyr(3-tBu)-NH2] (H-[Phe(4-F)]-[NMetBuAla]-[NMeTyr(3-tBu)]-NH2) gave an IC50 of 4.1 nM. Besides, the Kb in test [1] was 3.98 nM.

Take `CN(C(=O)[C@@H](N)Cc1ccc(F)cc1)[C@H](C(=O)N(C)[C@@H](Cc1ccc(O)c(C(C)(C)C)c1)C(N)=O)C1CCCCC1` [Example 151, Phe(4-F)-N-Me-Chg-N-Me-Tyr(3-tBu)-NH2] (H-[Phe(4-F)]-[NMeChg]-[NMeTyr(3-tBu)]-NH2): the IC50 on motilin receptor worked out at 0.36 nM. Moreover, the Kb in test [1] is 6.31 nM.

On motilin receptor, `CN(C(=O)[C@@H](N)Cc1ccc(F)cc1)[C@@H](Cc1ccccc1)C(=O)N(C)[C@@H](Cc1ccc(O)c(C(C)(C)C)c1)C(N)=O` [Example 155, Phe(4-F)-N-Me-Phe-N-Me-Tyr(3-tBu)-NH2] (H-[Phe(4-F)]-[NMeF]-[NMeTyr(3-tBu)]-NH2) returned an IC50 of 2.5 nM. In test [1], the Kb was 7.94 nM.

In turn, `CN(C(=O)[C@@H](N)Cc1ccc(F)cc1)[C@@H](Cc1ccc(F)cc1)C(=O)N(C)[C@@H](Cc1ccc(O)c(C(C)(C)C)c1)C(N)=O` [Example 157, Phe(4-F)-N-Me-Phe(4-F)-N-Me-Tyr(3-tBu)-NH2] (H-[Phe(4-F)]-[NMePhe(4-F)]-[NMeTyr(3-tBu)]-NH2) gave a half-maximal inhibitory concentration (IC50) on motilin receptor of 6.1 nM. Moreover, the Kb in test [1] is 7.94 nM.

For the molecule `CN(C(=O)[C@@H](N)Cc1ccc(F)cc1)[C@@H](Cc1cccs1)C(=O)N(C)[C@@H](Cc1ccc(O)c(C(C)(C)C)c1)C(N)=O` [Example 163, Phe(4-F)-N-Me-Ala(β-2-thienyl)-N-Me-Tyr(3-tBu)-NH2] (H-[Phe(4-F)]-[NMe2Thi]-[NMeTyr(3-tBu)]-NH2), at motilin receptor, the IC50 was determined as 2.4 nM. In test [1], the Kb was 15.8 nM.

`CN(C(=O)[C@@H](N)Cc1ccc(F)cc1)[C@H](C(=O)N(C)[C@@H](Cc1ccc(O)c(C(C)(C)C)c1)C(N)=O)C1CC1` [Example 165, Phe(4-F)-N-Me-Ala(β-c-Pr)-N-Me-Tyr(3-tBu)-NH2] (H-[Phe(4-F)]-[NMeGly(cPr)]-[NMeTyr(3-tBu)]-NH2): the IC50 at motilin receptor is 2.8 nM. The Kb in test [1] was 6.31 nM.

For `CN(C(=O)[C@@H](N)Cc1ccc(F)cc1)[C@H](C(=O)N(C)[C@@H](Cc1ccc(O)c(C(C)(C)C)c1)C(N)=O)c1ccccc1` [Example 166, Phe(4-F)-N-Me-Phg-N-Me-Tyr(3-tBu)-NH2] (H-[Phe(4-F)]-[NMePhg]-[NMeTyr(3-tBu)]-NH2), on motilin receptor, the IC50 is 1.8 nM. The Kb in test [1] was 0.158 nM.

In turn, `CC(C)[C@@H](C(=O)N(C)C(Cc1ccc(O)c(C(C)(C)C)c1)C(N)=O)N(C)C(=O)C(N)Cc1ccc(C#N)cc1` (stereo partly shown) [Example 182, Phe(4-CN)-N-Me-Val-N-Me-Tyr(3-tBu)-NH2] (H-[ξPhe(4-CN)]-[NMeV]-[ξNMeTyr(3-tBu)]-NH2) registered an IC50 on motilin receptor of 2.3 nM. The Kb in test [1] is 3.16 nM.

At motilin receptor, `CC(C)[C@@H](C(=O)N(C)C(Cc1ccc(O)c(C(C)(C)C)c1)C(N)=O)N(C)C(=O)C(N)Cc1c[nH]c2ccccc12` (stereo partly shown) [Example 183, Trp-N-Me-Val-N-Me-Tyr(3-tBu)-NH2] (H-[ξW]-[NMeV]-[ξNMeTyr(3-tBu)]-NH2) displayed an IC50 of 0.57 nM. Besides, the Kb in test [1] was 0.316 nM.

One may read the IC50 as the midpoint of a concentration-inhibition curve.
